Assay results published in paper PMC6701825, “Antiproliferative and Antimigratory Effects of a Novel YAP–TEAD Interaction Inhibitor Identified Using in Silico Molecular Docking” (Journal of Medicinal Chemistry, 2019).

Assays:
[1] = system: TEAD-dependent transcriptional activity; assay: 8xTEAD secreted nanoluciferase (TEAD-NLUC) reporter assay in HeLa cells; type: cell-based, human; conditions: HeLa TEAD-NLUC, 6 h
From the text: The shortlisted sets of 16 compounds were first assayed for their ability to inhibit TEAD-dependent transcriptional activity in HeLa cells that had been transduced with a recombinant lentiviral vector expressing secreted bioluminescent nanoluciferase (NLUC) reporter gene enzyme, which is expressed under the control of a promoter region containing eight TEAD DNA-binding elements (TEAD-NLUC).
Compounds were initially screened for ability to inhibit TEAD-dependent transcriptional activity in HeLa cells transduced with a lentiviral vector expressing secreted nanoluciferase under the control of multimerized TEAD consensus elements (5′-[…]-3′). 8xTEAD NanoLuc was generated by cloning the 8xTEAD promoter from the 8xTEAD-Luc plasmid (Addgene #34615) into the pENTR gateway entry vector (Promega). This was then recombined into pLNT-sec-Nluc-2A-eGFP destination vector (supplied by Tristan McKay; University of Manchester). Lentiviruses were generated by Viafect-mediated co-transfection of pLNT8x-TEAD-sec-Nluc-2A-eGFP, Δ8.9, and VSV-G vectors into HEK293T cells (ATCC), and lentiviral-containing culture supernatants were used to infect HeLa cells in the presence of 6 μg/mL polybrene. For compound screening, 8xTEAD NanoLuc-transduced HeLa cells were seeded at 2 × 10^4 cells/well in 96-well plates. After 48 h, the cells were washed in PBS and incubated with test compounds at the indicated concentrations for 2 h. The cells were washed again in PBS and incubated with the compound for a further 4 h. Conditioned culture medium (50 μL) was assayed for secreted nanoluciferase activity using NanoGlo activity assays kit (Promega) and a Glomax Discover luminometer.

[2] = system: HeLa cells; assay: EdU proliferation assay in HeLa cells; type: cell-based, human; conditions: for cell proliferation (EdU incorporation): 18 h then 6 h 10 μM EdU
Experimental: Cell proliferation was measured using the Click-iT EdU 488 assay (Sigma-Aldrich). Briefly, the cells were treated with indicated concentrations of compounds for 24 h with the last 4 h being in the presence of 10 μM EdU. The cells were fixed in 4% formaldehyde and stained for EdU incorporation, following the kit’s standard protocol. The cells were counterstained with Hoechst 33342 nucleic acid for 20 min. Fluorescent images of at least three fields of view per well were counted using ImageJ software. Real-time analysis of cell migration was performed using an IncuCyte ZOOM live cell imaging system (Essen BioScience) according to the manufacturer’s instructions. Briefly, the cells were seeded (1.2 × 10^4 cells/well for HeLa cells, 1.5 × 10^4 cells/well for RaVSMCs, and 1 × 10^4 cells/well) into ImageLock 96-well plates. After 36 h, the cells were pretreated overnight with indicated concentrations of compounds. The wells were scratched using a WoundMaker tool, and the media were replaced containing test compounds. Phase contrast images of cell migration into the wounded area were acquired hourly for 24 h. Relative wound confluence was calculated using the Cell Migration Image analysis module of the IncuCyte ZOOM software.

[3] = system: housekeeping genes PGK1, TBP, GAPDH, 36B4; assay: qRT-PCR of TEAD-independent housekeeping gene mRNA in RaVSMCs; type: cell-based, rat
Experimental: Figure 9 Compound 3.1 inhibits TEAD target gene expression, cell proliferation, and cell migration in RaVSMCs. RaVSMCs stably transduced with TEAD-NLUC (A) or transiently transfected with CCN1-LUC or CTGF-LUC were treated with the indicated concentrations of compound 3.1 for 6 hr. Cell conditioned media (A) or cell lysates (B−C) were assayed for nanoluciferase or fire-fly luciferase activity, respectively. VSMC were treated with 60 μM compound 3.1 for 6 h (n = 3). Total RNA was analyzed for mRNA levels of TEAD-target genes (D) or constitutive housekeeping genes (E) by qRT-PCR. VSMC were treated with indicated concentrations of compound 3.1 for 16 hr (n = 4). Total cell lysates were analyzed for CCN1 protein expression by Western blotting (F). […] RaVSMCs (I) or HuVSMC (J) were treated with indicated concentrations of compound 3.1 and cell migration quantified using IncuCyte real time migration assay (n = 4).
Quantitative reverse transcription (RT)-PCR: quantification of mRNA was performed by RT-qPCR, as described previously.[39] Total RNA was extracted using Ambion PureLink kits (Thermo Fisher) and reverse-transcribed using QuantiTect RT kit (Qiagen) and random primers. Quantitative PCR was performed using Roche SYBR Green using a Qiagen Roto-GeneRotor-Gene Q PCR machine (20 seconds@95 °C; 20 seconds @62 °C; 20 seconds@72 °C). […]

[4] = system: TEAD-independent minimal TNT1 gene promoter; assay: Minimal TNT1 promoter-luciferase (minP-LUC) reporter in HeLa cells; type: cell-based, human; conditions: 6 h
From the text: Activation of TEAD transcription factors in response to YAP binding induces the expression of many genes that encode proteins known to be involved in promoting cell proliferation and migration (see Supplement Figure 14). The best characterized TEAD target genes associated with the promotion of cell proliferation and migration are CCN1 and CTGF.[39],[59],[60] […] We therefore tested whether CPD3 inhibited the promoter activity of known TEAD target genes, CCN1 and CTGF, in the HeLa transformed cell line and primary rat VSMCs (RaVSMCs). Cells were transfected with plasmids expressing bioluminescent firefly luciferase reporter genes under the control of either the CCN1 or CTGF promoter regions. […] As both CCN1 and CTGF are classical TEAD target genes, this is consistent with the inhibition of TEAD activity by CPD3.
TNT1-minP reporter containing the Troponin-T minimal promoter was generated by digesting 8xGTIIC-luciferase plasmid (Addgene #34615) with Kpn1 and BglII to remove the TEAD elements, followed by blunt end re-ligation. A 2.177 kb fragment of the human CCN1 promoter containing two proximal TEAD elements (Hg19;chr1:86044316–chr1:86046493) was described previously[39] and cloned into pGL4-luciferase (Promega). […]

| Compound | concentration at which TEAD-dependent NLUC secretion was significantly inhibited [1] [µM] | IC50 ([1]; Homo sapiens, HeLa, read-out: IC50, TEAD-dependent NLUC secretion) [µM] | cell proliferation (EdU incorporation) [2] | steady-state mRNA level of housekeeping gene 36B4 ([3]; RaVSMCs, Supplement Figure 4) | activity of TEAD-independent minimal TNT1 promoter (minP-LUC) [4] | doses at which EdU incorporation was significantly inhibited [2] | steady-state mRNA levels of housekeeping genes PGK1, TBP, GAPDH, 36B4 ([3]; VSMC, 60 μM, 6 h) |
| --- | --- | --- | --- | --- | --- | --- | --- |
| Cc1ccc2c(c1)c1c3n2CCN(CC(O)CN2CCN(C(=O)c4ccco4)CC2)C3CCC1 (stereo not shown) [CPD3] | 60 | > 110 | dose-dependently inhibited cell proliferation | but not the TEAD-independent housekeeping gene 36B4 | not inhibited by any concentration | – | – |
| Cc1ccc2c(c1)c1c3n2CCNC3CCC1 (stereo not shown) [CPD3.1] | 20 | – | dose-dependently inhibited HeLa cell proliferation | – | without affecting expression | above 40 μM | unaffected |
